According to US10752591B2, “18-20 member bi-polycyclic compounds” (Haro Pharmaceutical Inc., priority 2014, dated 2020):

Legend:
Lys382 acetylated p53 = experiment: intracellular acetylation of p53 in IMR-32 cells (western blot); type: cell-based; settings: 1 μM or 5 μM, 16 hours
Protocol: The effect of certain compounds on intracellular acetylation of target proteins was tested in high risk neuroblastoma cells, BE-2C and IMR-32 cells.
IMR32 cells were grown to confluence in phenol-red-free RPMI media supplemented with 10% es grade FBS and 2.5 mM Ala-Glu. Cells were treated with DMSO or 1 μM or 5 μM compound 13 in DMSO for 16 hours. Protein extracts were prepared in RIPA buffer in the presence of protease and phosphatase inhibitors. Proteins were separated on a 4-20% gel by PAGE and transferred to a nitrocellulose membrane.
Beta actin, total and Lys382 acetylated p53, and Lys40 acetylated alpha, and total tubulin were detected using antibodies (Cell Signaling #8557, #2524 #2525, #12152 and #2144 respectively) using manufacturer recommended conditions.

[1] = tested on: BE-2C neuroblastoma cells; experiment: cytotoxicity, cell survival (CellTiterGlo) in BE-2C; type: cell-based; settings: BE-2C cells
Protocol: The cytotoxicity of compounds was examined and directly compared to compound 17, by measuring cell survival of clonal tumor cell lines IMR-32, BE2C (neuroblastoma), as well as MDA-MB-231, BT20, HCC-38 (Basal) and MCF7 (luminal) breast cancer cells (ATCC). Cells were cultured in phenol red-free RPMI medium supplemented with 10% FBS and 1 mM Ala-Glu. Typically, 10,000-20,000 cells/well were plated in a 96 well plate (Costar 3197). Cells were exposed to compounds or vehicle (1% DMSO final). Cells were maintained in the presence of compound for four or five days. Media and compounds were renewed every 48 hours. Cell survival was measured using the luminescence CellTiterGlo kit (Promega Corporation) and expressed as relative light unit as fold over DMSO.

CC1(C)CCC(C)(C)c2cc(-c3cc4cc(C(=O)NO)ccc4[nH]3)ccc21 [Compound 13]
lysine acetylated p53 level (Lys382 acetylated p53): pronounced accumulation of lysine acetylated p53
cytotoxic potency compared with compound 17, SAHA, Ricolinistat [1]: more potent than compound 17, SAHA or Ricolinistat
